From PMC4457528, “Identification of Novel Small Molecule Inhibitors of Oncogenic RET Kinase” (PLoS ONE, 2015)
Where two headings read alike, the source gives them in different places.

What was measured:
Test in all cases: KinomeScan kinase panel, single concentration 10 µM
Format in all cases: binding
KinomeScan kinase panel [1] = target: T1, KinomeScan kinase panel (Homo sapiens, UniProt O00506); conditions: kinase YSK1; 10 µM; read-out: score (%)
T1 construct: purchased DiscoveRx (KinomeScan)

KinomeScan kinase panel [2] = target: T2, KinomeScan kinase panel (Homo sapiens, UniProt O43293); conditions: DAPK3, 10 µM; read-out: score (%)
T2 construct: purchased DiscoveRx (KinomeScan)

KinomeScan kinase panel [3] = target: T3, KinomeScan kinase panel (Homo sapiens, UniProt O43353); conditions: read-out: score (%)
T3 construct: purchased DiscoveRx (KinomeScan)

KinomeScan kinase panel [4] = target: T4, KinomeScan kinase panel (Homo sapiens, UniProt P10721, V559D/V654A); conditions: KIT(V559D.V654A), 10 µM; read-out: score (%)
T4 construct: purchased DiscoveRx (KinomeScan)

KinomeScan kinase panel [5] = target: T5, KinomeScan kinase panel (Homo sapiens, UniProt P31751); conditions: AKT2, 10 µM; read-out: score (%)
T5 construct: purchased DiscoveRx (KinomeScan)

KinomeScan kinase panel [6] = target: T6, KinomeScan kinase panel (Homo sapiens, UniProt P35590); conditions: read-out: score (%)
T6 construct: purchased DiscoveRx (KinomeScan)

KinomeScan kinase panel [7] = target: T7, KinomeScan kinase panel (Homo sapiens, UniProt P36507); conditions: MEK2, 10 µM; read-out: score (%)
T7 construct: purchased DiscoveRx (KinomeScan)

KinomeScan kinase panel [8] = target: T8, KinomeScan kinase panel (Homo sapiens, UniProt P41240); conditions: CSK, 10 µM
T8 construct: purchased DiscoveRx (KinomeScan)

KinomeScan kinase panel [9] = target: T9, KinomeScan kinase panel (Homo sapiens, UniProt Q13153); conditions: PAK1, 10 µM; read-out: score (%)
T9 construct: purchased DiscoveRx (KinomeScan)

KinomeScan kinase panel [10] = target: T10, KinomeScan kinase panel (Homo sapiens, UniProt Q13557); conditions: CAMK2D, 10 µM; read-out: score (%)
T10 construct: purchased DiscoveRx (KinomeScan)

KinomeScan kinase panel [11] = target: T11, KinomeScan kinase panel (Homo sapiens, UniProt Q16512); conditions: PKN1, 10 µM; read-out: score (%)
T11 construct: purchased DiscoveRx (KinomeScan)

KinomeScan kinase panel [12] = target: T12, KinomeScan kinase panel (Homo sapiens, UniProt Q59H18); conditions: 10 µM, read-out: score (%)
T12 construct: purchased DiscoveRx (KinomeScan)
T12 sequence (Q59H18 1-835): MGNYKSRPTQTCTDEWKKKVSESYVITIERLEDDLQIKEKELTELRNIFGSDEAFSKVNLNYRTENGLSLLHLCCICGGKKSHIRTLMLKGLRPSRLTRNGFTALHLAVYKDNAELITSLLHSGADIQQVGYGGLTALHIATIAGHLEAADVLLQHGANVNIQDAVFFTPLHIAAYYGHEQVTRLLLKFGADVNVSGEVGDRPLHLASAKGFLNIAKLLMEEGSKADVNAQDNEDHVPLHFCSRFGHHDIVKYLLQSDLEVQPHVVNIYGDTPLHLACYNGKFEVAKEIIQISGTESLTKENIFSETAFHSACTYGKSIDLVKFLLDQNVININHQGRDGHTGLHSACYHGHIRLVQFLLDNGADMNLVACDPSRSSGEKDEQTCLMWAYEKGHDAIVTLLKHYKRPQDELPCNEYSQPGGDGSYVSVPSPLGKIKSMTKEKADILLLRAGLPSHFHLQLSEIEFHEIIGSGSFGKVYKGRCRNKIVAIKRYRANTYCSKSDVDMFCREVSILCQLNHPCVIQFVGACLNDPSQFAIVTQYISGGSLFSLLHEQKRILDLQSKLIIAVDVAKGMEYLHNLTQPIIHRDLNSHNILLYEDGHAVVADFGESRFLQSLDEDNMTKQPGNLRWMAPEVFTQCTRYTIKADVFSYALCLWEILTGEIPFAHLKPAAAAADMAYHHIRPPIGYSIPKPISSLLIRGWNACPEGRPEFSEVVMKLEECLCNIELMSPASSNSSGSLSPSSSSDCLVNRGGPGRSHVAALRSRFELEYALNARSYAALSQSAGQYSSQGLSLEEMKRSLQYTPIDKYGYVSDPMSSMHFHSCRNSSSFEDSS

KinomeScan kinase panel [13] = target: T13, KinomeScan kinase panel (Homo sapiens, UniProt Q9BVS4); conditions: read-out: score (%)
T13 construct: purchased DiscoveRx (KinomeScan)

KinomeScan kinase panel [14] = target: T14, KinomeScan kinase panel (Homo sapiens, UniProt Q9H2K8); conditions: read-out: score (%)
T14 construct: purchased DiscoveRx (KinomeScan)
T14 sequence (Q9H2K8 1-898): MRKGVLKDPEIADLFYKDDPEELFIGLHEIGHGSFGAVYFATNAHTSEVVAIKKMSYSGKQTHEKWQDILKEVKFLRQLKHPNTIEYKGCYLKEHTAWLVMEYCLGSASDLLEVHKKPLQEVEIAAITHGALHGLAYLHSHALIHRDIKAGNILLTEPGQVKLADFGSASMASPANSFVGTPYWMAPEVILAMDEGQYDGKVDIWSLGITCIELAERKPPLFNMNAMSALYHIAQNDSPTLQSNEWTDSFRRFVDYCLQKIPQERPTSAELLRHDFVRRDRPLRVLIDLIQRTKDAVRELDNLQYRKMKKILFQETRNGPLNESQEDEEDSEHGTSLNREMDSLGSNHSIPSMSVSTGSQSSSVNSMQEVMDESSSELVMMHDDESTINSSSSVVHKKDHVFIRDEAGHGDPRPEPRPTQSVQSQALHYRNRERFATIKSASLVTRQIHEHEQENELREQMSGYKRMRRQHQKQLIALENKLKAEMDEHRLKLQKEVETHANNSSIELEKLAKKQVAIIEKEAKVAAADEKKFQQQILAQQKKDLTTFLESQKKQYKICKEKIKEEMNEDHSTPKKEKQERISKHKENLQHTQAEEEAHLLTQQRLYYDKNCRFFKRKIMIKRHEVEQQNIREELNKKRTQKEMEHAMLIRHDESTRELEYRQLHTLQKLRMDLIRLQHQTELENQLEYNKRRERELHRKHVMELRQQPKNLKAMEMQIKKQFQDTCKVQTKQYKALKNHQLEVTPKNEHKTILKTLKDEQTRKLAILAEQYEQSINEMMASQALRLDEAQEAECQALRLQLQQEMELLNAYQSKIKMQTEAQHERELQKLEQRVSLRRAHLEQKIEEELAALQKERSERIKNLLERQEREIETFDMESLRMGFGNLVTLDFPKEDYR

KinomeScan kinase panel [15] = target: T15, KinomeScan kinase panel (Homo sapiens, UniProt Q9P289); conditions: MST4, 10 µM; read-out: score (%)
T15 construct: purchased DiscoveRx (KinomeScan)

KinomeScan kinase panel [16] = target: T16, KinomeScan kinase panel (Homo sapiens, UniProt Q9UPE1); conditions: read-out: score (%)
T16 construct: purchased DiscoveRx (KinomeScan)

T3 sequence (O43353 whole entry): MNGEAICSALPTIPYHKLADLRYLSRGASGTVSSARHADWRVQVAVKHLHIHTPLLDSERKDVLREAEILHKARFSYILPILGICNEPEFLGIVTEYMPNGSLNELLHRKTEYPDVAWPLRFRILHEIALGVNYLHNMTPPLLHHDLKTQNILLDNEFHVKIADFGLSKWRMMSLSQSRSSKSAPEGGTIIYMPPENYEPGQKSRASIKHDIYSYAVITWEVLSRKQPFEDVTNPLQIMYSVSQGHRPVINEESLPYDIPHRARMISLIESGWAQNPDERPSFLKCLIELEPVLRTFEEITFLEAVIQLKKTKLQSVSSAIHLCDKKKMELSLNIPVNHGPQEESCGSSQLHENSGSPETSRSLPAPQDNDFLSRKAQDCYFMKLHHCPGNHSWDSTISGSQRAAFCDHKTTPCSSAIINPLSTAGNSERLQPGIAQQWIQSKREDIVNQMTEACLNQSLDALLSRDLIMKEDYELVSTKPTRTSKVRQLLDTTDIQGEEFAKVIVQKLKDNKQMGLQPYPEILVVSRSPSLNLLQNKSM
T10 sequence (Q13557 whole entry): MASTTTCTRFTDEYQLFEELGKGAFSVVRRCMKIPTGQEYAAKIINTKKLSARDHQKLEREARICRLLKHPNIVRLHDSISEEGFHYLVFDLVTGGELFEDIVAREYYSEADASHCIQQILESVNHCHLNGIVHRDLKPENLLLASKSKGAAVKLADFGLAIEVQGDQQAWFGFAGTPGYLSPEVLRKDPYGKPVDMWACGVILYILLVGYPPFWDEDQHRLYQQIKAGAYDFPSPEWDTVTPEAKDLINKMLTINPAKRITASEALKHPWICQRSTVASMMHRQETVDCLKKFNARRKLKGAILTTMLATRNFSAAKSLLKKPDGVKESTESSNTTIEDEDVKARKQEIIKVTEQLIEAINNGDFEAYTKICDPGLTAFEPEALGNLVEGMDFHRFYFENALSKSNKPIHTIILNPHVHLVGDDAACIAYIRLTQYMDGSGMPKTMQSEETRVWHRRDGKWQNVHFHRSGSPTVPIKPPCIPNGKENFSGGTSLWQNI
T1 sequence (O00506 whole entry): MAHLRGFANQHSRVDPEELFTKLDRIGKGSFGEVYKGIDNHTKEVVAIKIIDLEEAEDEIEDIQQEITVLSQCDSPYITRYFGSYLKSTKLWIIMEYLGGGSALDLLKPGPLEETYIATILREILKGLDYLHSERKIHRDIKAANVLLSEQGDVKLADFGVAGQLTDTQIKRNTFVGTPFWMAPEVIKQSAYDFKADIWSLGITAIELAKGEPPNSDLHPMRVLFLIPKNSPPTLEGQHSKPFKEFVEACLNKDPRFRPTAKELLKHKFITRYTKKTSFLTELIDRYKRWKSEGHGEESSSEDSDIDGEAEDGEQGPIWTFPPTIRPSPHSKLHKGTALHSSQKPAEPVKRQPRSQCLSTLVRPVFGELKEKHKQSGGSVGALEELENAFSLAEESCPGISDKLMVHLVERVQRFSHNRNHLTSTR
T5 sequence (P31751 whole entry): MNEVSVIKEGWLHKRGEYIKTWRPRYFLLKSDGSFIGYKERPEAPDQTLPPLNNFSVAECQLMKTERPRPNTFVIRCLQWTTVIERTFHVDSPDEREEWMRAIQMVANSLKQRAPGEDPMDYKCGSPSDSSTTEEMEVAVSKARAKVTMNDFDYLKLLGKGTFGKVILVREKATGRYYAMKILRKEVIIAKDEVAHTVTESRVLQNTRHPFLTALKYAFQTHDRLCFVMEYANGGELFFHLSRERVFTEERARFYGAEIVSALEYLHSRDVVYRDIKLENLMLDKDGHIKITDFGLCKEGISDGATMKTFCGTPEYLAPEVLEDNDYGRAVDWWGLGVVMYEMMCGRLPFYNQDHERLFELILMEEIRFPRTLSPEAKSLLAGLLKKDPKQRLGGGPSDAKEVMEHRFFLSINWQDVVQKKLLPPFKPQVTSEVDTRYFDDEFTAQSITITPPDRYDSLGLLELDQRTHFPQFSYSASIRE
T4 sequence (P10721 26-976 V559D/V654A): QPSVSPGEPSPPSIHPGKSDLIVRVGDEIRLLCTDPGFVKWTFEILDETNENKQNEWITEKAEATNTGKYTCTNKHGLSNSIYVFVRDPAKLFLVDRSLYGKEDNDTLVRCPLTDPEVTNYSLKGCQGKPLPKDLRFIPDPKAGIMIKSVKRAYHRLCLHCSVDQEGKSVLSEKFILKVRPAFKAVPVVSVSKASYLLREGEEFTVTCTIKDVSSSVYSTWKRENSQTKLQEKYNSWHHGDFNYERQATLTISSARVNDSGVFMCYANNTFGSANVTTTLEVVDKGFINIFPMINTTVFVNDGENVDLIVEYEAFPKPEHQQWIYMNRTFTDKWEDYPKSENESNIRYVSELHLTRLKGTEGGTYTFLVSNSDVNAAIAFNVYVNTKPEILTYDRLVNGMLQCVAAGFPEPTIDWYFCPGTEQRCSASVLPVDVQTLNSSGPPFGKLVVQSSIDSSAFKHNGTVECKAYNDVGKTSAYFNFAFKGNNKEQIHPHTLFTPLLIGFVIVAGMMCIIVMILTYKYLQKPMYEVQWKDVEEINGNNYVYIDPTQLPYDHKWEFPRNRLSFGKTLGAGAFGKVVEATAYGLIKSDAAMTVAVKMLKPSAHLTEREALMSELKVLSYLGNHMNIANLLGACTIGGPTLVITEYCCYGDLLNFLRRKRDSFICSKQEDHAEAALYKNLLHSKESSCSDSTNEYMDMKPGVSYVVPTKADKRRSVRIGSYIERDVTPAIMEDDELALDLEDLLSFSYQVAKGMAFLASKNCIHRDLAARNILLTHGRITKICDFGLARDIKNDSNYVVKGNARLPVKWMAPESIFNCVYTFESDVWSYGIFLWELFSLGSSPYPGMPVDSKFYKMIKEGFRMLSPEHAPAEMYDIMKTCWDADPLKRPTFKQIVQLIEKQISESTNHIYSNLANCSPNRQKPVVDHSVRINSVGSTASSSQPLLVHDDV
T6 sequence (P35590 22-1138): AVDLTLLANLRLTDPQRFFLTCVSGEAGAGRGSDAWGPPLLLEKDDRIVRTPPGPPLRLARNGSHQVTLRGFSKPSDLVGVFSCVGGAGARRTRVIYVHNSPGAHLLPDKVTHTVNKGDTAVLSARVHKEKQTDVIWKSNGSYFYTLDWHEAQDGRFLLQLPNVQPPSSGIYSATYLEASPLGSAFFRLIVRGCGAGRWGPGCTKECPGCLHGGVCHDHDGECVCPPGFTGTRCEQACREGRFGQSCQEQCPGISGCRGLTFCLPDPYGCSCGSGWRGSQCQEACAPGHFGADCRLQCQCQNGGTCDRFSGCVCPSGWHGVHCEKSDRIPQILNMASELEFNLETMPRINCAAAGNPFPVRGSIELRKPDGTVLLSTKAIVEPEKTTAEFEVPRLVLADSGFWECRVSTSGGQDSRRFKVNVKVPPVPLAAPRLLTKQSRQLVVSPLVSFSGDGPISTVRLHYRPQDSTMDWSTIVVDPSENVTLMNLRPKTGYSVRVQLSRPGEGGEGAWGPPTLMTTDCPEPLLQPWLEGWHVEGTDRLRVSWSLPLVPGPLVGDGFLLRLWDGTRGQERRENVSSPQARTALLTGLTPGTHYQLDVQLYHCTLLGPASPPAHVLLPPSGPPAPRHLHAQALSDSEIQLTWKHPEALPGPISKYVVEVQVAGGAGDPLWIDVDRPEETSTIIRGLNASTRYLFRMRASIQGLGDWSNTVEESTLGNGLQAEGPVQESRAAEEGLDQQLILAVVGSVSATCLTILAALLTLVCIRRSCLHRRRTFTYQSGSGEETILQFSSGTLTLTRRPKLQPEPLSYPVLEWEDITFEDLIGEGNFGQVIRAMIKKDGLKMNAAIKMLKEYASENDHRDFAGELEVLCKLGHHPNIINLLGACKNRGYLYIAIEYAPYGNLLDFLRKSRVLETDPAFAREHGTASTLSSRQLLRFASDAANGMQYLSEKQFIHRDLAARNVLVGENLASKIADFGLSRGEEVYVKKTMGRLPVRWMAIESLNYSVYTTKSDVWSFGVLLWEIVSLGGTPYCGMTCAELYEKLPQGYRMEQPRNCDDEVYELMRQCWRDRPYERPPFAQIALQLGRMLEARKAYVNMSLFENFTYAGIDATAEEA
T2 sequence (O43293 whole entry): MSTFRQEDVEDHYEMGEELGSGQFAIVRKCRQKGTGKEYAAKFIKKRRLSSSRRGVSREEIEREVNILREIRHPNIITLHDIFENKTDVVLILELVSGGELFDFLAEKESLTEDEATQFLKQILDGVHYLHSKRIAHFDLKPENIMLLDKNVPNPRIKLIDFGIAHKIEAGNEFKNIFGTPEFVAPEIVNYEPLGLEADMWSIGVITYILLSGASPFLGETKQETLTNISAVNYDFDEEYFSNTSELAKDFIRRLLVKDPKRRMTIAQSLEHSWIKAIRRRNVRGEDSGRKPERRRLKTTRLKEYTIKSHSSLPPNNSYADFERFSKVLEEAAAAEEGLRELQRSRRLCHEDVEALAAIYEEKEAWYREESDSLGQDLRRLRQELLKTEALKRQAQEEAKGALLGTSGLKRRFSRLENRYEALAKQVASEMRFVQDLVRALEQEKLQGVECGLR
T7 sequence (P36507 whole entry): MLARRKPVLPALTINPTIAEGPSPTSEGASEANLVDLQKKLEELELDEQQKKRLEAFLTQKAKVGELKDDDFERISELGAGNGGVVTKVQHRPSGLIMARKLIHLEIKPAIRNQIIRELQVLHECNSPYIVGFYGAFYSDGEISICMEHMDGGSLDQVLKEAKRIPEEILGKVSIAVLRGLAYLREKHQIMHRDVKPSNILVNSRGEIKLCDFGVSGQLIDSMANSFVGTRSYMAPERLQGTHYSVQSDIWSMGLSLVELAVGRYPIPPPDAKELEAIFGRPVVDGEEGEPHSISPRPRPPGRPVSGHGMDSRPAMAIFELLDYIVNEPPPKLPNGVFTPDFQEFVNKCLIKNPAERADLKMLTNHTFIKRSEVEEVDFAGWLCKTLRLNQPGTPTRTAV

SMILES | remaining binding at 10 µM (KinomeScan kinase panel [1]) [%] | remaining binding at 10 µM (KinomeScan kinase panel [2]) [%] | remaining binding at 10 µM (KinomeScan kinase panel [4]) [%] | remaining binding at 10 µM (KinomeScan kinase panel [5]) [%] | remaining binding at 10 µM (KinomeScan kinase panel [6]; kinase TIE1, 10 µM) [%] | remaining binding at 10 µM (KinomeScan kinase panel [7]) [%] | score (%) (KinomeScan kinase panel [8]) | remaining binding at 10 µM (KinomeScan kinase panel [9]) [%] | remaining binding at 10 µM (KinomeScan kinase panel [10]) [%] | remaining binding at 10 µM (KinomeScan kinase panel [11]) [%] | remaining binding at 10 µM (KinomeScan kinase panel [12]; kinase TNNI3K) [%] | remaining binding at 10 µM (KinomeScan kinase panel [14]; kinase TAOK3, 10 µM) [%] | remaining binding at 10 µM (KinomeScan kinase panel [15]) [%] | remaining binding at 10 µM (KinomeScan kinase panel [16]; kinase SRPK3, 10 µM) [%] | remaining binding at 10 µM (KinomeScan kinase panel [3]; RIPK2, 10 µM) [%] | remaining binding at 10 µM (KinomeScan kinase panel [13]; RIOK2, 10 µM) [%] | other results
CCN1CCN(Cc2ccc(NC(=O)c3ccc(C)c(C#Cc4cccnc4)c3)cc2C(F)(F)F)CC1 [XMD15-44] | 16 | > 30 | 4.2 | 30 | 1.6 | > 30 | 0.15 | 81 | > 30 | 85 | 0 | 0 | 21 | 45 | – | – | remaining binding at 10 µM (KinomeScan kinase panel [3]; kinase RIPK2, 10 µM): 0.45%; remaining binding at 10 µM (KinomeScan kinase panel [13]; kinase RIOK2, 10 µM): 0.5%
CCN1CCN(Cc2ccc(NC(=O)c3ccc(C)c(/C=C/c4cnc5[nH]ccc5c4Cl)c3)cc2C(F)(F)F)CC1 [HG-6-63-01, (E)-3-(2-(4-chloro-1H-pyrrolo[2,3-b]pyridin-5-yl)vinyl)-N-(4-((4-ethylpiperazin-1-yl)methyl)-3-(trifluoromethyl)phenyl)-4-methylbenzamide] | > 30 | > 30 | 0.9 | > 30 | – | > 30 | 2.1 | > 30 | > 30 | > 30 | – | – | 32 | – | 1.6 | 33 | remaining binding at 10 µM (KinomeScan kinase panel [6]; TIE1, 10 µM): 1.2%; remaining binding at 10 µM (KinomeScan kinase panel [12]; TNNI3K): 0.9%; remaining binding at 10 µM (KinomeScan kinase panel [14]; TAOK3, 10 µM): 0.1%; remaining binding at 10 µM (KinomeScan kinase panel [16]; SRPK3, 10 µM): 22%
CCN1CCN(Cc2ccc(NC(=O)c3ccc(C)c(NC(=O)c4cncc(-c5cccs5)c4)c3)cc2C(F)(F)F)CC1 [ALW-II-41-27] | > 30 | > 30 | 5.4 | > 30 | 1.4 | > 30 | 0.65 | > 30 | > 30 | > 30 | 3.8 | 2.8 | 12 | > 30 | 3.1 | > 30 | –
